Measurements published in article PMC10046946, “Novel Phthalic-Based Anticancer Tyrosine Kinase Inhibitors: Design, Synthesis and Biological Activity” (Current Issues in Molecular Biology, 2023).

Columns and labels:
[1] = test system: K562 (chronic myelogenous leukemia); assay: MTT cell proliferation assay, K562; type: cell-based; settings: Homo sapiens, K562, 72 h of exposition, read-out: Anti-proliferative activity IC50, K562
Protocol: (§1) Tests to determine the effects of the synthesized compounds on cell viability and the half-maximal inhibitory concentration (IC50) were performed using the MTT assay, as described in our prior work.
(§2) The target compounds 5, 6, 8–12, 14, 15, 17–22 and 24–26 were tested for antiproliferative activity against six cancer cell lines: K562 (chronic myelogenous leukemia), HL-60 (promyelocytic leukemia), MCF-7 (breast adenocarcinoma), HepG2 (human liver cancer), A549 (lung carcinoma) and OKP-GS (renal cell carcinoma). The RPMI 1788 cells (B lymphocyte, human) were used as a control to evaluate the system toxicity of the studied compounds to normal cells. Sorafenib, nilotinib and lapatinib were utilized as reference standards for comparison.

[2] = test system: HL-60 (promyelocytic leukemia); assay: MTT cell proliferation assay, HL-60; type: cell-based; settings: Homo sapiens, HL-60, 72 h of exposition, read-out: Anti-proliferative activity IC50, HL-60
Protocol: as §1, §2

[3] = test system: MCF-7 (breast adenocarcinoma); assay: MTT cell proliferation assay, MCF-7; type: cell-based; settings: Homo sapiens, MCF7, MCF-7, 72 h of exposition, read-out: Anti-proliferative activity IC50, MCF-7
Protocol: as §1, §2

[4] = test system: HepG2 (human liver cancer); assay: MTT cell proliferation assay, HepG2; type: cell-based; settings: Homo sapiens, HepG2, 72 h, HepG2, 72 h of exposition, read-out: Anti-proliferative activity IC50, HepG2
Protocol: as §1, §2

A549 (lung carcinoma) = assay: MTT cell proliferation assay, A549; type: cell-based; settings: Homo sapiens, A549, 72 h of exposition, read-out: Anti-proliferative activity IC50, A549
Protocol: as §1, §2

[5] = test system: OKP-GS (renal cell carcinoma); assay: MTT cell proliferation assay, OKP-GS; type: cell-based; settings: 72 h of exposition, read-out: Anti-proliferative activity IC50, OKP-GS
Protocol: as §1, §2

[6] = test system: RPMI 1788 cells (B lymphocyte, human); assay: MTT cell proliferation assay, normal RPMI 1788 cells; type: cell-based; settings: normal human lymphoblastoid cells RPMI 1788, 72 h of exposition, read-out: Anti-proliferative activity IC50, RPMI 1788
Protocol: as §1, §2

[7] = test system: cancer cell lines (K562, HL-60, MCF-7, HepG2, A549, OKP-GS); assay: MTT cell proliferation assay, statements over the whole cell line panel; type: cell-based; settings: statement over the cell line panel, studied concentration range up to 50 µM
Protocol: as §1, §2

Compound	IC50 [1] [µM]	IC50 [2] [µM]	IC50 [3] [µM]	IC50 [4] [µM]	IC50 (A549 (lung carcinoma)) [µM]	IC50 [5] [µM]	IC50 [6] [µM]	Antiproliferative activity (IC50) over the studied cell cultures [7]	melting point [°C]	IC50 ([7]; read-out: Antiproliferative activity (IC50) over the studied cell cultures) [µM]
CNC(=O)c1cc(Oc2ccc(NC(=O)c3cccc(C(=O)Nc4cccc(C(F)(F)F)c4)c3)cc2)ccn1 [Compound 6, N1-(4-((2-(methylcarbamoyl)pyridin-4-yl)oxy)phenyl)-N3-(3-(trifluoromethyl)phenyl)isophthalamide]	> 50	> 50	41.1 ± 5.06	> 50	> 50	> 50	13 ± 2.99	lack of sensitivity of the cancer cells in the studied concentration range	258 to 260	–
Cc1cn(-c2cc(NC(=O)c3ccc(C)c(Nc4nccc(-c5cccnc5)n4)c3)cc(C(F)(F)F)c2)cn1 [Nilotinib, reference compound]	< 0.1	22.7 ± 4.76	4.2 ± 0.14	4.81 ± 0.21	> 50	2.76 ± 0.06	19.32 ± 0.09	–	–	2 to 27
